The values that follow come from patent US10308643B2, “Heterocyclic compound” (Takeda Pharmaceutical Company Limited, priority 2015, dated 2019).

Structures can show the parent of a compound that is named as a salt.

Holding throughout (type): biochemical
One experiment addresses T1, HDAC9 enzyme (Homo sapiens, UniProt Q9UKV0).
T1 construct: transducing full length HDAC9 gene into Sf-9 insect cells; made in house; host or cells: Sf-9 insect cells
As to the kind of experiment: HDAC9 Enzyme Inhibitory Assay (HDAC-Glo class IIa). The conditions noted are these: 1 μM test compound, wells without enzyme = 100% inhibition; for inhibition at 1 µM: read-out: HDAC9 inhibitory rate (%) (1 μM). The method, boiled down: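 Luminescent HDAC-Glo class IIa readout after a 20 min room-temperature reaction; relative inhibition referenced to enzyme-free wells as 100%. Test compound first preincubated 60 min with Sf-9-expressed, Ni-NTA-purified full-length HDAC9 in pH 7.5 Tris buffer containing 135 mM NaCl, 0.6 mM glutathione and 0.01% Tween-20.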

A further experiment deals with T2, HDAC6 enzyme (Homo sapiens, UniProt Q9UBN7).
T2 construct: transducing full length HDAC1 and HDAC6 genes into Sf-9 insect cells; GST; purchased SignalChem; host or cells: Sf-9 insect cells
T2 sequence (Q9UBN7 1-1215): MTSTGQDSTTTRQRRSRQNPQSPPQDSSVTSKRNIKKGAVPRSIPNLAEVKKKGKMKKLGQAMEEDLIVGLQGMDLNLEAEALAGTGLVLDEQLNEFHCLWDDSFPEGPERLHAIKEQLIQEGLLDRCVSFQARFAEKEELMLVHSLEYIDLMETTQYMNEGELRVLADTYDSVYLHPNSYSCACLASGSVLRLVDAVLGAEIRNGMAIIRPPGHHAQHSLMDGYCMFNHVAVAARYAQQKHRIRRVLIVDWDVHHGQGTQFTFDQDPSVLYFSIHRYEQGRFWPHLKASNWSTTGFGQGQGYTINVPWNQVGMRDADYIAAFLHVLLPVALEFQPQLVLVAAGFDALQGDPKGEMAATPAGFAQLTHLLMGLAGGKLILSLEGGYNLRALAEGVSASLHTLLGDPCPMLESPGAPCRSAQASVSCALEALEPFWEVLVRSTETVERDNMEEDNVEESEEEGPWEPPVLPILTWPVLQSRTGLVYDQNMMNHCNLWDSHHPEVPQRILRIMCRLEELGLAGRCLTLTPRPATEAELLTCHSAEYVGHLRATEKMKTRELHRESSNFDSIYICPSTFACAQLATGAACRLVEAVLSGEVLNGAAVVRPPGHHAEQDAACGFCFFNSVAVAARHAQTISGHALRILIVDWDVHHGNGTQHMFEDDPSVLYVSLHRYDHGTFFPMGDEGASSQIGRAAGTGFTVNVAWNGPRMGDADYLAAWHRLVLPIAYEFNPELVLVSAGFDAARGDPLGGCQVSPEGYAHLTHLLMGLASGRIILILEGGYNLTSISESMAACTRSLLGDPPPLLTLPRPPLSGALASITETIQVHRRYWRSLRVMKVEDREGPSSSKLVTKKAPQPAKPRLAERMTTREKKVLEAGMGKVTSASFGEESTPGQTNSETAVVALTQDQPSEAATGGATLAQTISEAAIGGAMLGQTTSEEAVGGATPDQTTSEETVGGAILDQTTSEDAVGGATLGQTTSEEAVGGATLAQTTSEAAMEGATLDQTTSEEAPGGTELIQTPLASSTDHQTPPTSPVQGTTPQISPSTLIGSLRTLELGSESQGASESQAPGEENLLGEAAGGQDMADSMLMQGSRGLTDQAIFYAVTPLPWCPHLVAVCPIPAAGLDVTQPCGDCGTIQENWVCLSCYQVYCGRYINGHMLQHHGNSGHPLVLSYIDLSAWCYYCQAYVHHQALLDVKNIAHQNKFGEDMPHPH
As to the kind of experiment: HDAC1/6 Enzyme Inhibitory Assay (HDAC-Glo I/II Assay kit), HDAC6. The conditions noted are these: 1 μM test compound, wells without enzyme = 100% inhibition; for inhibition at 1 µM: read-out: HDAC6 inhibitory rate (%) (1 μM). The method, boiled down: (§1)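 Full-length human HDAC1 or HDAC6, expressed in Sf-9 cells and GST-purified, was preincubated with compound for 60 min at room temperature in Tris-HCl pH 7.5 buffer with MgCl2, KCl, NaCl, glutathione and Tween-20. HDAC-Glo substrate-developer was then added, and luminescence was read after 20 min. Inhibition was referenced to no-enzyme wells as 100%.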

A further experiment deals with T3, HDAC1 enzyme (Homo sapiens, UniProt Q13547).
T3 construct: transducing full length HDAC1 and HDAC6 genes into Sf-9 insect cells; GST; purchased SignalChem; host or cells: Sf-9 insect cells
The experiment is described as follows: HDAC1/6 Enzyme Inhibitory Assay (HDAC-Glo I/II Assay kit), HDAC1. The conditions noted are these: 1 μM test compound, wells without enzyme = 100% inhibition; for inhibition at 1 µM: read-out: HDAC1 inhibitory rate (%) (1 μM). The method, boiled down:
as §1

T3 sequence (Q13547 whole entry): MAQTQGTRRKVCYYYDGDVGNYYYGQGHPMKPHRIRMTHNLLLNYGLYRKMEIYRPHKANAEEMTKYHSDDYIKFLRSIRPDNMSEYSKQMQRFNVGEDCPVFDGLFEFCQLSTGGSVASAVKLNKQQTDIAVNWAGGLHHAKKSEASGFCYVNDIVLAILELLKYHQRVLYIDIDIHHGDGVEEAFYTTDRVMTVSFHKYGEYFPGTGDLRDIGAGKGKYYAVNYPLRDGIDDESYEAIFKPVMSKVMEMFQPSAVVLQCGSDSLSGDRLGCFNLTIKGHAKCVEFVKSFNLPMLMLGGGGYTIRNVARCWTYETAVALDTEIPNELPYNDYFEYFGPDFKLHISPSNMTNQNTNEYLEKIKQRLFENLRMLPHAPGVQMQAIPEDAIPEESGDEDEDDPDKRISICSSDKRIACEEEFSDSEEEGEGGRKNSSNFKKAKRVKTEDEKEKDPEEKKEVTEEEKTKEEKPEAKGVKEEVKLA
T1 sequence (Q9UKV0 whole entry, species assumed): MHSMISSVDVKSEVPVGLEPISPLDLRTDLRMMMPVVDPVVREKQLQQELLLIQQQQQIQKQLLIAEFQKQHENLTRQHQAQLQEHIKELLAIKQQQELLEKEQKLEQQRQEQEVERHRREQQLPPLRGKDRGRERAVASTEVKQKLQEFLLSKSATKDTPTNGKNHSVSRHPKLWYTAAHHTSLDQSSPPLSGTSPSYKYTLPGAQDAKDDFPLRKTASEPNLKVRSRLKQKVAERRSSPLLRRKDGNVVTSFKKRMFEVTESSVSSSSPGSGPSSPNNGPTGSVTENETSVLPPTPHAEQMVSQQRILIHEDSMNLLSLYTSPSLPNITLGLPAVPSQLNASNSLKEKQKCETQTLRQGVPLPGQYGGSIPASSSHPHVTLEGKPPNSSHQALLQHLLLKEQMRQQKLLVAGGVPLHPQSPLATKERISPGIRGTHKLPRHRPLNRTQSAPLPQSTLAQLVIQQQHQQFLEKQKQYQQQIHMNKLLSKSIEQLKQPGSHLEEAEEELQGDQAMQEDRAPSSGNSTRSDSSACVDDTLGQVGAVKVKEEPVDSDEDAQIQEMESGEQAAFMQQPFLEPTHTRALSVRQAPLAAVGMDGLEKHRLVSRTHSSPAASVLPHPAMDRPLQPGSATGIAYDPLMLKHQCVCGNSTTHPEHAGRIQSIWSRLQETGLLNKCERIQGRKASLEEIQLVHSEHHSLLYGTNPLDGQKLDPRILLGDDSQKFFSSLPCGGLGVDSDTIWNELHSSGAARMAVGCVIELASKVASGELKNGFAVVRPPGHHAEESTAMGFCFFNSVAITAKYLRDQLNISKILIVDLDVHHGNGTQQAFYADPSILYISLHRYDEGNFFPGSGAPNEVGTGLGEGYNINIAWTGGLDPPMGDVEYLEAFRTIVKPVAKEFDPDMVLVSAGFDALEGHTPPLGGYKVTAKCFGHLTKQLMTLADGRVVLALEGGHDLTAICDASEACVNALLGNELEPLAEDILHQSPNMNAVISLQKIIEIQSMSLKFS

Take `O=C(N[C@H]1CCOC[C@H]1N1Cc2ccc(-c3noc(C(F)(F)F)n3)cc2C1=O)C1CC1(F)F` (single isomer, unassigned) [Example 214, (1R) or (1S)-2,2-difluoro-N-((3S,4S)-3-(1-oxo-6-(5-(trifluoromethyl)-1,2,4-oxadiazol-3-yl)-1,3-dihydro-2H-isoindol-2-yl)tetrahydro-2H-pyran-4-yl)cyclopropanecarboxamide]: the “HDAC9 inhibitory rate (%) (1 μM)” value at HDAC9 enzyme (1 µM) worked out at 97%. Moreover, on HDAC6 enzyme (1 µM), the “HDAC6 inhibitory rate (%) (1 μM)” value came to 98%. Besides, the “HDAC1 inhibitory rate (%) (1 μM)” value at HDAC1 enzyme (1 µM) is reported as 68%.
`O=C1c2cc(-c3noc(C(F)(F)F)n3)ccc2CN1C1CCNC[C@@H]1c1ccc(Cl)cc1` (stereo in doubt) [Example 51, 2-(trans-3-(4-chlorophenyl)piperidin-4-yl)-6-(5-(trifluoromethyl)-1,2,4-oxadiazol-3-yl)isoindolin-1-one]: the inhibition at 1 µM came to 99% on HDAC9 enzyme, 98% at HDAC6 enzyme and 94% at HDAC1 enzyme.
As to `O=C1c2cc(-c3noc(C(F)(F)F)n3)ccc2CN1C1CCNC[C@@H]1c1cc(Cl)cc(Cl)c1` (stereo in doubt) [Example 58, 2-(trans-3-(3,5-dichlorophenyl)piperidin-4-yl)-6-(5-(trifluoromethyl)-1,2,4-oxadiazol-3-yl)isoindolin-1-one], the inhibition at 1 µM worked out at 99% on HDAC9 enzyme, 98% at HDAC6 enzyme and 99% on HDAC1 enzyme.
Turning to `O=C1CC(C(=O)N[C@@H]2CCCCC2N2Cc3ccc(-c4noc(C(F)(F)F)n4)cc3C2=O)CN1` (stereo in doubt) [Example 131, (3R)-5-oxo-N-((1R,2R)-2-(1-oxo-6-(5-(trifluoromethyl)-1,2,4-oxadiazol-3-yl)-1,3-dihydro-2H-isoindol-2-yl)cyclohexyl)pyrrolidine-3-carboxamide], the values for the inhibition at 1 µM on HDAC9 enzyme, on HDAC6 enzyme and at HDAC1 enzyme were 31%, 88% and 0%, respectively.
For `CC(C)(C)OC(=O)N1CC[C@@H](N2Cc3ccc(-c4noc(C(F)(F)F)n4)cc3C2=O)[C@H](c2ccccc2)C1` [Example 13, tert-butyl (3R,4R)-4-(1-oxo-6-(5-(trifluoromethyl)-1,2,4-oxadiazol-3-yl)-1,3-dihydro-2H-isoindol-2-yl)-3-phenylpiperidine-1-carboxylate], the inhibition at 1 µM was determined as 84% at HDAC9 enzyme, 101% on HDAC6 enzyme and 53% at HDAC1 enzyme.
For `CC(C)(C)OC(=O)N1CC[C@H](N2Cc3ccc(-c4noc(C(F)(F)F)n4)cc3C2=O)[C@H](c2ccccc2)C1` [Example 14, tert-butyl (3R,4S)-4-(1-oxo-6-(5-(trifluoromethyl)-1,2,4-oxadiazol-3-yl)-1,3-dihydro-2H-isoindol-2-yl)-3-phenylpiperidine-1-carboxylate] the same measures were 48%, 68% and 0%.
For `O=C1c2cc(-c3noc(C(F)(F)F)n3)ccc2CN1[C@@H]1CCNC[C@H]1c1ccccc1` [Example 15, 2-((3R,4R)-3-phenylpiperidin-4-yl)-6-(5-(trifluoromethyl)-1,2,4-oxadiazol-3-yl)isoindolin-1-one] the same measures were 99%, 98% and 97%.
For `O=C1c2cc(-c3noc(C(F)(F)F)n3)ccc2CN1[C@H]1CCNC[C@H]1c1ccccc1` [Example 16, 2-((3R,4S)-3-phenylpiperidin-4-yl)-6-(5-(trifluoromethyl)-1,2,4-oxadiazol-3-yl)isoindolin-1-one] the same measures were 87%, 98% and 49%.
In the case of `CC(C)(C)OC(=O)N1CC[C@@H](N2Cc3ccc(-c4noc(C(F)(F)F)n4)cc3C2=O)[C@@H](c2ccccc2)C1` [Example 19, tert-butyl (3S,4R)-4-(1-oxo-6-(5-(trifluoromethyl)-1,2,4-oxadiazol-3-yl)-1,3-dihydro-2H-isoindol-2-yl)-3-phenylpiperidine-1-carboxylate], the inhibition at 1 µM stood at 48% on HDAC9 enzyme, 99% on HDAC6 enzyme and 18% at HDAC1 enzyme.
In the same order, the values of `CC(=O)N1CC[C@@H](N2Cc3ccc(-c4noc(C(F)(F)F)n4)cc3C2=O)[C@H](c2ccccc2)C1` [Example 20, 2-((3R,4R)-1-acetyl-3-phenylpiperidin-4-yl)-6-(5-(trifluoromethyl)-1,2,4-oxadiazol-3-yl)isoindolin-1-one] are 96%, 98% and 87%.
For `CC(=O)N1CC[C@H](N2Cc3ccc(-c4noc(C(F)(F)F)n4)cc3C2=O)[C@H](c2ccccc2)C1` [Example 21, 2-((3R,4S)-1-acetyl-3-phenylpiperidin-4-yl)-6-(5-(trifluoromethyl)-1,2,4-oxadiazol-3-yl)isoindolin-1-one] the same measures were 80%, 93% and 8%.
In the same order, the values of `O=C1c2cc(-c3noc(C(F)(F)F)n3)ccc2CN1C1CCNC[C@@H]1c1ccccc1` (stereo partly drawn) [Example 22, 2-((3S,4R)-3-phenyipiperidin-4-yl)-6-(5-(trifluoromethyl)-1,2,4-oxadiazol-3-yl)isoindolin-1-one, hydrochloride] are 96%, 100% and 85%.
Take `CC(=O)N1CC[C@@H](N2Cc3ccc(-c4noc(C(F)(F)F)n4)cc3C2=O)[C@@H](c2ccccc2)C1` [Example 23, 2-((3S,4R)-1-acetyl-3-phenylpiperidin-4-yl)-6-(5-(trifluoromethyl)-1,2,4-oxadiazol-3-yl)isoindolin-1-one]: the inhibition at 1 µM on HDAC9 enzyme amounted to 84%; on HDAC6 enzyme, 98%; on HDAC1 enzyme it was 58%.
For `O=C1c2cc(-c3noc(C(F)(F)F)n3)ccc2CN1[C@H]1CCc2ccccc21` [Example 24, 2-((1S)-2,3-dihydro-1H-inden-1-yl)-6-(5-(trifluoromethyl)-1,2,4-oxadiazol-3-yl)isoindolin-1-one] the same measures were 52%, 95% and 6%.
For the compound `O=C1c2cc(-c3noc(C(F)(F)F)n3)ccc2CN1[C@@H]1CCc2ccccc21` [Example 25, 2-((1R)-2,3-dihydro-1H-inden-1-yl)-6-(5-(trifluoromethyl)-1,2,4-oxadiazol-3-yl)isoindolin-1-one], the figures for the inhibition at 1 µM at HDAC9 enzyme, on HDAC6 enzyme and at HDAC1 enzyme were 39%, 92% and 7%, respectively.
In the same order, the values of `CC(C)(C)OC(=O)N[C@@H]1CCCC[C@H]1N1Cc2ccc(-c3noc(C(F)(F)F)n3)cc2C1=O` [Example 26, tert-butyl ((1R,2R)-2-(1-oxo-6-(5-(trifluoromethyl)-1,2,4-oxadiazol-3-yl)-1,3-dihydro-2H-isoindol-2-yl)cyclohexyl)carbamate] are 47%, 98% and 11%.
